Experimental data as given in patent publication US11578051B2, “Thiophene carboxamide derivative and plant disease control agent comprising same” (KOREA RESEARCH INSTITUTE OF CHEMICAL TECHNOLOGY, priority 2018, dated 2023).

Experiments:
Format in all cases: in vivo
[1] = system: cucumber powdery mildew pathogen (Sphaerotheca fusca); assay: Cucumber powdery mildew control effect test; conditions: treatment concentration 10 ppm, as in Experimental Example 3
Method: A predetermined amount of the present compound corresponding to the test concentration was dissolved in 10% acetone and then was sprayed to foliage in a single leafy cucumber (variety: Baekdadagi) grown in a circular pot (6×7 cm, diameter×height). One day after application, the Cucumber plants were inoculated by spraying a spore suspension prepared with spores obtained from cucumber leaves infected with cucumber powdery mildew pathogen (Sphaerotheca fusca). After an incubation period of 1 day at 20° C. humid conditions, the plants were kept in a chamber for 12 days at a constant temperature and humidity under constant light conditions. After 13 days of the compound treatment, the disease incidence was assessed according to equation (1) of Experimental Example 1, and the control value was determined according to the criteria of Experimental Example 1. Compound No. 1 and the following four compounds as a comparative control compound were evaluated for controlling cucumber powdery mildew as described in Experimental Example 3.

[2] = system: rice sheath blight pathogen (Rhizoctonia solani); assay: Rice sheath blight control effect test; conditions: rice (Chucheongbyeo), foliar spray, active ingredient 200 ppm, spraying dose 30 mL, assessed 5 days after treatment
Method: A predetermined amount of the present compound corresponding to the test concentration was dissolved in 10% acetone and then was sprayed to foliage in the 5-leaf stage rice (variety: Chucheongbyeo) grown in a circular pot (6×7 cm, diameter×height). One day after application, the rice plants were inoculated by spraying a mycelial suspension of a culture of rice sheath blight pathogen (Rhizoctonia solani) obtained by culturing in a rice bran culture medium and incubated to induce disease development for 5 days under a humid condition at 30° C. After 5 days of the compound treatment, the disease incidence was assessed according to the equation (1) of Experimental Example 1, and the control value was determined according to the criteria of Experimental Example 1.

[3] = system: cucumber sclerotinia pathogen (Sclerotinia sclerotiorum); assay: Cucumber sclerotinia disease control effect test; conditions: cucumber (Baekdadagi), foliar spray, active ingredient 200 ppm, spraying dose 30 mL, assessed 4 days after treatment
Method: A predetermined amount of the present compound corresponding to the test concentration was dissolved in 10% acetone and then was sprayed to foliage in a single leafy cucumber (cultivar: Baekdadagi) grown in a circular pot (6×7 cm, diameter×height). One day after application, the Cucumber plants were inoculated by spraying a mycelial suspension of a liquid culture of cucumber sclerotinia pathogen (Sclerotinia sclerotiorum) and incubated for 4 days under constant light conditions and high humidity conditions at 25° C. to induce disease development. Four days after the compound treatment, the disease incidence was assessed according to equation (1) of Experimental Example 1, and the control value was determined according to the criteria of Experimental Example 1.

SMILES | Activity (control value criterion) [1] | control value criterion [2] | control value criterion [3]
CON=Cc1ccc(-c2ccccc2NC(=O)c2cn(C)nc2C(F)F)cc1 [Comparative compound A, 3-(difluoromethyl)-N-(4′-((methoxyimino)methyl)-[1,1′-biphenyl]-2-yl)-1-methyl-1H-pyrazole-4-carboxamide] | 0 (less than 9% control value) |  | 
CON=Cc1ccc(-c2ccccc2NC(=O)c2sccc2C)cc1 [Comparative compound B, N-(4′-((methoxyimino)methyl)-[1,1′-biphenyl]-2-yl)-3-methylthiophene-2-carboxamide] | 1 (Control value 10-29%) |  | 
CON=Cc1c(F)cc(-c2ccccc2NC(=O)c2c(C(F)F)nn(C)c2Cl)cc1F [Comparative compound D, 5-chloro-N-(3′,5′-difluoro-4′-((methoxyimino)methyl)-[1,1′-biphenyl]-2-yl)-3-(difluoromethyl)-1-methyl-1H-pyrazole-4-carboxamide] | 1 (Control value 10-29%) |  | 
CON=Cc1c(F)cc(-c2ccccc2NC(=O)c2sccc2C)cc1F [Compound 1, N-(3′,5′-difluoro-4′-((methoxyimino)methyl)-[1,1′-biphenyl]-2-yl)-3-methylthiophene-2-carboxamide] | 5 (Control value 90-100%) | 5 (Control value 90-100%) | 5 (Control value 90-100%)
CON=Cc1ccc(-c2ccccc2NC(=O)c2cn(C)nc2C(F)F)cc1F [Comparative compound C, 3-(difluoromethyl)-N-(3′-fluoro-4′-((methoxyimino)methyl)-[1,1′-biphenyl]-2-yl)-1-methyl-1H-pyrazole-4-carboxamide] | 0 (less than 9% control value) |  | 
